Usually IC50 stands for the concentration at which inhibition is half-maximal. One may read the EC50 as the midpoint of the concentration-response curve. Lower therefore signals a more potent agent.

The target of assay [1] is T1, Hsp90α (Homo sapiens, UniProt P07900).
T1 construct: purchased Stressgen Bioreagents SPP-776
Kind of assay: Human Hsp90α fluorescence polarization competition assay with Example 37 tracer. Conditions: displacement of 50 nM example 37 tracer, 125 nM Hsp90α, 1 h 30 min, 20° C.; read-out: Relative binding affinity values (IC50) obtained from FP measurements. The text has this: The aim of this study was to determine the binding ability of compounds of the invention to the N-terminal ATP binding site of Hsp90. For that purpose competition assays with fluorescently labeled Hsp90 binders were used (compounds of examples 37 and 41).
Compounds of examples 37 and 41 are structurally based on 8-(6-Iodo-benzo[1,3]dioxol-5-ylsulfanyl)-9-(3-isopropylamino-propyl)-9H-purin-6-ylamine, a known binder of the N-terminal ATP binding site of Hsp90 which has the ability of inhibiting the Hsp90 function (cf. Chiosis G. et al. “Identification of Potent Water Soluble Purine-Scaffold Inhibitors of the Heat Shock Protein 90”, J. Med. Chem., 2006, vol. 49, no. 1, p. 381). Compounds 37 and 41 keep the essential structural features of the known binder (which means that said compounds are able to bind to the ATP binding site) and incorporate a fluorescent probe which allows the detection of the binding by fluorescence polarization.
When the binders of examples 37 and 41 are used in the competition assay, in a first step said binders are allowed to interact with the N-terminal ATP binding site of Hsp90. Then the compounds of the invention are added and it is determined if they are able to bind to the N-terminal ATP binding site (which will imply that the binders of examples 37 and 41 have been replaced from the N-terminal ATP binding site). If after performing the assay, the binding between the tested compound of the invention and the Hsp90 is observed, this will be indicative that the compound of the invention has been bound to the ATP binding site of Hsp90 and, therefore, can inhibit the Hsp90.
Once compounds of examples 37 and 41 were synthesized as reported above, they were dissolved at 238 μM and 1 mM in DMSO respectively (Sigma-Aldrich, cat. No. 154938). Hsp90α was purchased from Stressgen Bioreagents (cat. No. SPP-776; Victoria, Canada). The assay buffer contained 100 mM Tris·HCl, pH 7.4, 20 mM KCl, 6 mM MgCl2. Before each use 5 μg/mL bovine serum albumin (BSA, Pierce, Rockford (Ill.), cat No. 23209), 0.25 mM TCEP (Sigma, cat No. 64706) and 0.01% NP40 (Nonidet P40 Substitute, Fluka, cat No. 74385) were freshly added (cf. Howes et al., “A fluorescence polarization assay for inhibitors of Hsp90”, Analytical Biochemistry, 2006, vol. 350, p. 202-213; Kim et al., “Development of a fluorescence polarization assay for the molecular chaperone Hsp90”, J. Biomol. Screen., 2004, vol. 9 (5)).
Fluorescence polarization measurements were performed on an Infinite F200 (Tecan, Austria). Measurements were taken in black 96-well microplates (Corning Costar No. 3650) in which both the excitation and the emission occurred from the top of the wells. In the Infinite F200, a xenon arc lamp provides excitation light that passes through a 485 nm (20-nm bandwidth) excitation filter and then a polarizer filter. A beam splitter filter directs the polarized excitation light into the well, and emitted fluorescence transmits back through the same beam-splitter filter, through a polarizer filter, and then through a 535 nm (25-nm bandwidth) emission filter for detection (Kim et al., supra). The read time per well was 20 μs, and the number of reads per well was 25.
Compounds were assayed over a three-fold dilution series in a 96-well plate format to determine IC50 values. The serial dilution was performed in a separate 96-well plate (Thermowell 96 well PCR plate, Non-Treated Polypropylene, Corning Costar No. 6551) at 50 times final assay concentration in DMSO. (Howes et al, supra). 2 μl of compound was transferred to a black 96-well plate (Corning Costar No. 3650) and 98 μL of reaction solution (100 mM Tris·HCl, pH 7.4, 20 mM KCl, 6 mM MgCl2, 5 μg/mL bovine serum albumin (BSA), 0.25 mM TCEP, 0.01% NP40, 50 nM the compound of example 37, 125 nM Hsp90α) was added per well. The plate was allowed to equilibrate for 1 h 30 min on a slow moving shaker at 20° C. in the dark. […]

In assay [2] the test system is MCF-7. The assay is described as follows: Cell proliferation by MTT method, MCF-7. Type of assay: cell-based. Conditions: Homo sapiens. The protocol:
The objective of this study was to determine the influence of the compounds on cell proliferation of K-562, A-549, MCF-7, HeLa, WI-38 by MTT method. The compounds were tested over a three-fold dilution series in triplicate for the determination of EC50 of their influence on cell proliferation.
The assay is based on the cleavage of the yellow tetrazolium salt MTT into purple formazan by metabolically active cells. The MTT formazan crystals are insoluble in aqueous solution, but may be solubilized by adding the 10% SDS, then incubating the plates overnight in a humidified atmosphere (e.g., 37° C., 5% CO2). The solubilized formazan product can be photometrically quantitated using Tecan reader. An increase in the number of living cells results in an increase of total metabolic activity, which leads to a stronger color formation.
EC50 values are defined as the compound concentration at which 50% of reaction product is formed.
Test compounds were dissolved to 10 mM in 100% DMSO.
In the day of the experiment cells were seeded into all wells of 96-well plates. Serial dilution of compounds was performed in a separate 96-well plate at 20 times final assay concentration in cell culture medium (DMEM with 10% Fetal Bovine Serum). 5 μl of compound was transferred to 96-well plate containing seeded cells in cell culture medium (final total volume=100 μl). Cells were cultured in the presence of the respective test substances in the 96-well plate at 37° C. in a humidified 5% CO2 incubator for a certain period of time (24, 72 or 120 hours). Then 5 μL of thiazolyl blue tetrazolium bromide (MTT) 5 mg/mL was added to the cells and the cells were reincubated 4 hours in a humidified 5% CO2 incubator. Then 10% SDS was added into the each well. The reaction product was quantified by measuring the absorbance at 568 nm using a scanning multiwell spectrophotometer Tecan. The developed color and thereby the absorbance values directly correlate to the number of the living cells.
The data were analyzed using Microsoft Excel 2000, GraphPad Prism 3.03.
K 562 (human, chronic myelongenous leukemia), A 549 (human, lung carcinoma), MCF-7 (human, breast adenocarcinoma), Hela (human, cervix, carcinoma, epitheloid), WI-38 (human, embryonic lung)

The mark [3] stands for this setting: MCF7, 24 h, MCF-7, incubation 1 day.
Where [4] appears, read: MCF7, 72 h, MCF-7, incubation 3 days.
[5] abbreviates: MCF7, 120 h, MCF-7, incubation 5 days.

Molecules are shown by their SMILES.

In the case of `NCCCCCn1c(Sc2cc3c(cc2I)OCO3)nc(C(N)=O)c1N` [Example 6, 5-amino-1-(5-amino-pentyl)-2-(6-iodo-benzo[1,3]dioxol-5-ylsulfanyl)-1H-imidazole-4-carboxamide], the IC50 in assay [1] was found to be 0.88 µM. In addition, the EC50 was over 100 µM in assay [2] (setting [3]), 17.3 µM in assay [2] (setting [4]) and 16.7 µM in assay [2] (setting [5]).
In the case of `CCCCn1c(Sc2cc3c(cc2I)OCO3)nc(C(N)=O)c1N` [Example 10, 5-amino-1-butyl-2-(6-iodo-benzo[1,3]dioxol-5-ylsulfanyl)-1H-imidazole-4-carboxamide], the concentration for half-maximal inhibition (IC50) in assay [1] amounted to 1.7 µM. In addition, the results for the EC50 in assay [2] (setting [3]), in assay [2] (setting [4]) and in assay [2] (setting [5]) were over 100 µM, 10.1 µM and 11.7 µM, respectively.

The values above are taken from patent US20100240656A1, “COMPOUNDS AS HSP90 INHIBITORS” (ORYZON GENOMICS, S.A., priority 2007, published 2010).
